Data published in patent US4714711A, “6-hydroxy-2(2-hydroxy-4-methoxyphenyl)benzofuran derivatives to inhibit leukotriene biosynthesis” (Merck & Co., Inc., priority 1986, dated 1987).
Values after ≈ are worked out from the molar mass of the structure shown.

Key:
leukotriene C4 = assay: Inhibition of CXBG leukotriene production (A23187-stimulated, enzyme immunoassay); format: cell-based, mice; conditions: Mus musculus; CXBG cells, 2×10^6 cells/ml, inhibitor 5 minutes at 37°, A23187 stimulation 10 minutes; read-out: IC50 (μg/ml) LTC4
Method: (§1) Representative compounds of Formula I have been tested using the following assay to determine their mammalian leukotriene biosynthesis inhibiting activity and other relevant activities:
(§2) CXBG cells grown intraperitoneally in CB4 B6 /F1 /J mice were washed 5 times in Dulbeccos phosphate buffered saline without calcium or magnesium, suspended in medium 199 (Gibco) at 2×10^6 cells/ml, and incubated 15 minutes at 37°. Inhibitor solutions in methanol were incubated with the cells (10μl/600 μl cells), for 5 minutes at 37°, and the cells were stimulated with 60 μl A23187 (50 μg/ml) for 10 minutes at 37°. Aliquots were removed for measurement of leukotriene C4 or thromboxane B2 by enzyme immunoassay as previously reported (D. K. Miller, et al., J. Immunological Methods, 81, 169-185, 1985). The percentage inhibition was calculated by the following: [formula]

thromboxane B2 = assay: Inhibition of CXBG prostoglandin (thromboxane B2) production (A23187-stimulated, enzyme immunoassay); format: cell-based, mice; conditions: Mus musculus; CXBG cells, 2×10^6 cells/ml, inhibitor 5 minutes at 37°, A23187 stimulation 10 minutes; read-out: IC50 (μg/ml) Tx B2
Method: as §1, §2

Row | IC50 (leukotriene C4) | IC50 (thromboxane B2) | Compound
1 | 0.028 µg/mL (≈ 0.109 µM) | 1 µg/mL (≈ 3.9 µM) | COc1cc(O)ccc1-c1cc2ccc(O)cc2o1 [6-hydroxy-2-(2-methoxy-4-hydroxyphenyl)benzofuran]
2 | 0.75 µg/mL (≈ 2.93 µM) | 0.5 µg/mL (≈ 1.95 µM) | COc1ccc(-c2cc3cc(O)ccc3o2)c(O)c1 [5-hydroxy-2-(2-hydroxy-4-methoxyphenyl)benzofuran]
3 | 0.013 µg/mL (≈ 0.0507 µM) | 0.3 µg/mL (≈ 1.17 µM) | COc1ccc(-c2cc3ccc(O)cc3o2)c(O)c1 [6-hydroxy-2-(hydroxy-4-methoxyphenyl)benzofuran]
